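Each compound was tested at five concentrations against cells in 96-well plates for 48 hours. Here, GI50 denotes the concentration required for 50% inhibition of growth. Definition used: TGI = concentration required for complete inhibition of growth.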
Assays:
Test in all cases: NCI tumour cell line growth inhibition, 48 h
[1] = test system: NCI-H23 lung
[2] = test system: NCI-H460 lung
[3] = test system: NCI-H522 lung
[4] = test system: NCI/ADR-RES ovarian
[5] = test system: OVCAR-3 ovarian
[6] = test system: OVCAR-4 ovarian
[7] = test system: OVCAR-5 ovarian
[8] = test system: OVCAR-8 ovarian
[9] = test system: PC-3 prostate
[10] = test system: RPMI-8226 leukemia
[11] = test system: RXF 393 renal
[12] = test system: SF-268 CNS
[13] = test system: SF-295 CNS
[14] = test system: SF-539 CNS
[15] = test system: SK-MEL-2 melanoma
[16] = test system: SK-MEL-28 melanoma
[17] = test system: SK-MEL-5 melanoma
[18] = test system: SK-OV-3 ovarian
[19] = test system: SN12C renal
[20] = test system: SNB-19 CNS
[21] = test system: SNB-75 CNS
[22] = test system: SR leukemia
[23] = test system: SW-620 colon
[24] = test system: T-47D breast
[25] = test system: TK-10 renal
[26] = test system: U251 CNS
[27] = test system: UACC-257 melanoma
[28] = test system: UACC-62 melanoma
[29] = test system: UO-31 renal

Cc1ccc(N=Nc2c(O)ccc3n[nH]nc23)cc1
GI50 [1]: 5.65 µM
TGI [1]: 38.3 µM
GI50 [2]: 13.9 µM
TGI [2]: 52.9 µM
GI50 [3]: 10.1 µM
TGI [3]: 45.5 µM
GI50 [4]: 10.2 µM
TGI [4]: 73.2 µM
GI50 [5]: 4.31 µM
TGI [5]: 22.2 µM
GI50 [6]: 9.3 µM
TGI [6]: > 100 µM
GI50 [7]: 43.5 µM
TGI [7]: > 100 µM
GI50 [8]: 16.5 µM
TGI [8]: 75 µM
GI50 [9]: 5.99 µM
TGI [9]: > 100 µM
GI50 [10]: 5.52 µM
TGI [10]: 55.4 µM
GI50 [11]: 13.2 µM
TGI [11]: 82.1 µM
GI50 [12]: 14.9 µM
TGI [12]: 77.5 µM
GI50 [13]: 11.3 µM
TGI [13]: 38 µM
GI50 [14]: 15.8 µM
TGI [14]: > 100 µM
GI50 [15]: 19 µM
TGI [15]: 59.4 µM
GI50 [16]: 20.6 µM
TGI [16]: > 100 µM
GI50 [17]: 3.19 µM
TGI [17]: 13.2 µM
GI50 [18]: 10.3 µM
TGI [18]: > 100 µM
GI50 [19]: 17 µM
TGI [19]: > 100 µM
GI50 [20]: 20.7 µM
TGI [20]: > 100 µM
GI50 [21]: 17.4 µM
TGI [21]: > 100 µM
GI50 [22]: 14 µM
TGI [22]: 64.8 µM
GI50 [23]: 12.3 µM
TGI [23]: > 100 µM
GI50 [24]: 10.2 µM
TGI [24]: 57.7 µM
GI50 [25]: 11.7 µM
TGI [25]: 73.5 µM
GI50 [26]: 11.4 µM
TGI [26]: > 100 µM
GI50 [27]: 5.09 µM
TGI [27]: 39.5 µM
GI50 [28]: 4.52 µM
TGI [28]: 47.7 µM
GI50 [29]: 11.7 µM
TGI [29]: 44.9 µM
